Literature values, collected in publication PMC11101992 (Clinical and Translational Science, 2024).

Compound: CN[C@@H]1COc2c(S(=O)(=O)NC(=O)Nc3c4c(cc5c3CCC5)CCC4)cnn2C1 [GDC‐2394]
- healthy subjects with rash (900 mg): 22%

Compound: CN1CCC[C@]1(C)/C=C/S(=O)(=O)NC(=O)Nc1c2c(cc3c1CCC3)CCC2 [ZYIL1]
- drug‐related skin reactions (in words) (early clinical trials): did not yet report any drug‐related skin reactions
- IL‐1β release inhibition (IL‐1β release; healthy subjects): > 90%

Compound: CS(=O)(=O)CCC#N [dapansutrile]
- IL‐1β release reduction (in words) (IL‐1β release; healthy subjects and patients with gout flare): only partially reduced
